According to US8822517B2, “Arylosulfonamides for the treatment of CNS diseases” (Adamed SP. Z O.O., priority 2010, dated 2014):

Experiments:
[1] = target: dopaminergic D2 receptor (Homo sapiens, UniProt P14416); test: Cellular functional assay, dopaminergic D2 receptor (agonism/antagonism); format: cell-based; conditions: HEK293; for activation at 1 µM: agonist effect, percent of control specific agonist response (3 μM dopamine for control), 1×10^−6 M, D2S (h), HEK-293 cells, read-out: D2-ag [%]; for inhibition at 1 µM: read-out: D2-antag. [%]
dopaminergic D2 receptor, sequence (P14416 whole entry): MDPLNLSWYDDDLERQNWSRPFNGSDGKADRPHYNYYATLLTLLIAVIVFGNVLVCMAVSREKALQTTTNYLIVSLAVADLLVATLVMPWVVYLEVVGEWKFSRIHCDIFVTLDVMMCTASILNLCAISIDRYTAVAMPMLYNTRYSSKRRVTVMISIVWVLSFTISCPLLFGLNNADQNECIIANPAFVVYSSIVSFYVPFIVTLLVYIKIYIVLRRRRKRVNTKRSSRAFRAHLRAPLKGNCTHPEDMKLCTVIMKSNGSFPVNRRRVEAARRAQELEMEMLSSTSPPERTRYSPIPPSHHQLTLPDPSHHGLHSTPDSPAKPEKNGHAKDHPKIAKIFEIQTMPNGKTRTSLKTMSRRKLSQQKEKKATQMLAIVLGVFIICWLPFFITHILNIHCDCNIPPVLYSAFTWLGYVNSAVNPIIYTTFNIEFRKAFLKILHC
Description: (§1) The compounds were tested at the concentration of 1×10^−6M.
(§2) In the Tables ag refers to agonism, and antag to antagonism).

[2] = target: serotoninergic 5-HT6 receptor (Homo sapiens, UniProt P50406); test: Cellular functional assay, serotoninergic 5-HT6 receptor (agonism/antagonism); format: cell-based; conditions: for activation at 1 µM: agonist effect, percent of control specific agonist response, compounds tested at 1×10^−6M, read-out: 5-HT6-ag [%]; for inhibition at 1 µM: read-out: 5-HT6-antag. [%]
serotoninergic 5-HT6 receptor, sequence (P50406 whole entry): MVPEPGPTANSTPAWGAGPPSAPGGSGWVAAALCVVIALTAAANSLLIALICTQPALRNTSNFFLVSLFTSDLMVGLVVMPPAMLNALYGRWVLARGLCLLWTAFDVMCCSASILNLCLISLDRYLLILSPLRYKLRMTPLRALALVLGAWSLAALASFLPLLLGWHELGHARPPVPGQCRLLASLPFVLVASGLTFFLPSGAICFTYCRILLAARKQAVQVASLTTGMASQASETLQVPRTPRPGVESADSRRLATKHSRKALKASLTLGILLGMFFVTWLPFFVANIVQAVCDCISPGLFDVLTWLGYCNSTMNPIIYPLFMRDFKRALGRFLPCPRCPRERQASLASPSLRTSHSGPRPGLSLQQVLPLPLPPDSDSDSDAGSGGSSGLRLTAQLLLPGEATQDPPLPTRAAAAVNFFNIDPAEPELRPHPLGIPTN
Description: as §1, §2

[3] = target: T1, serotoninergic receptor 5-HT2C (Homo sapiens, UniProt P28335); test: Binding assay 5-HT2C (h), [3H]mesulergine, HEK-293 cells; conditions: read-out: 5-HT2C [%]
T1 construct: expressed in transfected cells; host or cells: HEK-293 cells
T1 sequence (P28335 33-458): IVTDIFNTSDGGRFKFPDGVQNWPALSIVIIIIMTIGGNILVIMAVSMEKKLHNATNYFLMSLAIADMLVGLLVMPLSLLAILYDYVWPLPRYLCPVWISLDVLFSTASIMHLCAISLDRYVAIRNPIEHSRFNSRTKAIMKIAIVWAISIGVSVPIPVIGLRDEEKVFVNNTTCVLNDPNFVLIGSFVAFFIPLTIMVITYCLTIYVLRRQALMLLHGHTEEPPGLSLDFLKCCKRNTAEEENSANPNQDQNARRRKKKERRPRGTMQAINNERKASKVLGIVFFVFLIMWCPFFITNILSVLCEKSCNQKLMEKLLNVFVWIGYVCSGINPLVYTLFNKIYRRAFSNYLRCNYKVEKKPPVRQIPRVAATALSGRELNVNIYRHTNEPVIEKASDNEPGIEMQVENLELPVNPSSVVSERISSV
Summary of the method: (§3)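 Binding read by scintillation counting. Non-specific component defined by excess unlabelled ligand and removed from total counts. Compounds at 1×10^−6 M.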

[4] = target: T2, muscarinic M3 receptor (Homo sapiens, UniProt P20309); test: Binding assay M3 (h), [3H]4-DAMP, CHO cells; conditions: read-out: M3 [%]
T2 construct: expressed in transfected cells; host or cells: CHO cells
T2 sequence (P20309 whole entry): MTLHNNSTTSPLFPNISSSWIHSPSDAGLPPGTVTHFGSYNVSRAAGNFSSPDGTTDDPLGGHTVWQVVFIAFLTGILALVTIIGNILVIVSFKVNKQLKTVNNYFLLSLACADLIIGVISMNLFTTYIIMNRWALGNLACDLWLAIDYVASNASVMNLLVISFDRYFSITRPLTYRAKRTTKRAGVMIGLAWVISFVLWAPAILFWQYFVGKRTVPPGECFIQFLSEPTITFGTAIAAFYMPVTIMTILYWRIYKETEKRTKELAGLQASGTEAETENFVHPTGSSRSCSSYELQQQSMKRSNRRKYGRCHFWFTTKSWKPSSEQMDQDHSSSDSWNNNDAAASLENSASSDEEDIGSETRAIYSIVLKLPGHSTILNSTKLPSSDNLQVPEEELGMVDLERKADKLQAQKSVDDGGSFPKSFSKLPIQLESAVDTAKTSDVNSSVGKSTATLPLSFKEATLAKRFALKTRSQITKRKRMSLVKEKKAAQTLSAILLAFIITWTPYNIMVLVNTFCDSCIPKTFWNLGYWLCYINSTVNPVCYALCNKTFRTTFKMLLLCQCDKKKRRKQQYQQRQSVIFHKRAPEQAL
Summary of the method: as §3

[5] = target: serotoninergic 5-HT7 receptor (Homo sapiens, UniProt P34969); test: Binding assay 5-HT7 (h), [3H]LSD, CHO cells; set-up: expressed in transfected cells; host or cells: CHO cells; conditions: read-out: 5-HT7
serotoninergic 5-HT7 receptor, sequence (P34969 whole entry): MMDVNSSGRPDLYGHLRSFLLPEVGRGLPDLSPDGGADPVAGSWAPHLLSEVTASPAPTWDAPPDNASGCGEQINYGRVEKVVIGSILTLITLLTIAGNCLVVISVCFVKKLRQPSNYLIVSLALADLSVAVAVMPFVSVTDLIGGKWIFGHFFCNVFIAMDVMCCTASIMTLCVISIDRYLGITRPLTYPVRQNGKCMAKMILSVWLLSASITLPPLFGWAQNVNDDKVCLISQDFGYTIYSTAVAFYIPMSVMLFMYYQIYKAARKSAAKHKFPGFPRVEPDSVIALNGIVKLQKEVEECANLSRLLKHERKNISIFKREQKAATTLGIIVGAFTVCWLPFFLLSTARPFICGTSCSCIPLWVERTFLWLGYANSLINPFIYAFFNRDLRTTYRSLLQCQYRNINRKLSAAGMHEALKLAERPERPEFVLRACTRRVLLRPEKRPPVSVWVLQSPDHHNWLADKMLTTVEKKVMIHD
Summary of the method: as §3

[6] = target: T3, adrenergic α1A receptor (Homo sapiens, UniProt P35348); test: Cellular functional assay, adrenergic α1A receptor (agonism/antagonism); format: cell-based; conditions: for activation at 1 µM: agonist effect, percent of control specific agonist response, compounds tested at 1×10^−6M, read-out: α1A -ag [%]; for inhibition at 1 µM: read-out: α1A -antag. [%]
T3 sequence (P35348 1-466): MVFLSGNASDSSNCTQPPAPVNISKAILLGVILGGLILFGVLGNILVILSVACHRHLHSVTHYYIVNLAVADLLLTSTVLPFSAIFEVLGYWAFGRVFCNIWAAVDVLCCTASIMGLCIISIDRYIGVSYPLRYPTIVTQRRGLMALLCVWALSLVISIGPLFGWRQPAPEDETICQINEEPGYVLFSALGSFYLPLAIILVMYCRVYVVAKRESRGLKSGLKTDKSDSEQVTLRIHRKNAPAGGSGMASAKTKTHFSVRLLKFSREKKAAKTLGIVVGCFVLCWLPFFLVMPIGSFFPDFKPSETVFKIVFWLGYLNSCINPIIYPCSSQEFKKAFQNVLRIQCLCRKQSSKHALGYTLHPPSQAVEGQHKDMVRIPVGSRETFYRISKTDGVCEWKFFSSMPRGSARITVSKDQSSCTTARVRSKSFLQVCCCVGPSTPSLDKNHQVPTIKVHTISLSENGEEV
Summary of the method: (§4)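 Human receptors tested in cell-based functional format for both agonist and antagonist modes. Single compound concentration of 1×10^−6M.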

[7] = target: dopaminergic D3 receptor (Homo sapiens, UniProt P35462); test: Cellular functional assay, dopaminergic D3 receptor (agonism/antagonism); format: cell-based; conditions: for inhibition at 1 µM: CHO, read-out: D3-antag. [%]; for activation at 1 µM: agonist effect, percent of control specific agonist response (300 nM dopamine for control), 1×10^−6 M, D3 (h), CHO cells, read-out: D3-ag [%]
dopaminergic D3 receptor, sequence (P35462 whole entry): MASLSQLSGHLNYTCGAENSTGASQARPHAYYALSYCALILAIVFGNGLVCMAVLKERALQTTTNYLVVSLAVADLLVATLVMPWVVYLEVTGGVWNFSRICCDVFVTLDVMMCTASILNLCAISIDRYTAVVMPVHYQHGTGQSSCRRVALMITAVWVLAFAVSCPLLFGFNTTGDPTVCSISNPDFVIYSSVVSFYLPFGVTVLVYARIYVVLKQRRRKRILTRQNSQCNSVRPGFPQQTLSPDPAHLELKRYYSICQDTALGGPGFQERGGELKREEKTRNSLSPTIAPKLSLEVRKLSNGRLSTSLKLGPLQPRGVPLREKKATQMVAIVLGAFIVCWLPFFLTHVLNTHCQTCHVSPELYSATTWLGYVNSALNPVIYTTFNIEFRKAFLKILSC
Description: as §1, §2

[8] = target: T4, histaminergic H1 receptor (Homo sapiens, UniProt P35367); test: Binding assay H1 (h), [3H]pyrilamine, HEK-293 cells; set-up: expressed in transfected cells; host or cells: HEK-293 cells; conditions: read-out: H1 [%]
T4 sequence (P35367 whole entry): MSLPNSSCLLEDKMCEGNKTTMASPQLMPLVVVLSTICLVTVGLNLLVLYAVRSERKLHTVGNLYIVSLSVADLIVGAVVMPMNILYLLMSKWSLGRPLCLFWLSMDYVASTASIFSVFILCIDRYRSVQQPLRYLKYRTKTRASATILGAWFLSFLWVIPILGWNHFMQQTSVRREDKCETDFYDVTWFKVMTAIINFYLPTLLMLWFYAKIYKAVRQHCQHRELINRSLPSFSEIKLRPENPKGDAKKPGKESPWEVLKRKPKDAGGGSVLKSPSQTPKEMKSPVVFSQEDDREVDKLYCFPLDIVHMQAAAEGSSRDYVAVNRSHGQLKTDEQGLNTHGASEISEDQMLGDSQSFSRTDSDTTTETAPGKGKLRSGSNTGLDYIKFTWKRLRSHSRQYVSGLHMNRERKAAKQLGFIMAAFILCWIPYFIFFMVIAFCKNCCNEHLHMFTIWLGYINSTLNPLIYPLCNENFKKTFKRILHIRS
Summary of the method: as §3

[9] = target: serotoninergic 5-HT2A receptor (Homo sapiens, UniProt P28223); test: Cellular functional assay, serotoninergic 5-HT2A receptor (agonism/antagonism); format: cell-based; conditions: for activation at 1 µM: read-out: 5-HT2A -ag [%]; for inhibition at 1 µM: read-out: 5-HT2A -antag [%]
serotoninergic 5-HT2A receptor, sequence (P28223 whole entry): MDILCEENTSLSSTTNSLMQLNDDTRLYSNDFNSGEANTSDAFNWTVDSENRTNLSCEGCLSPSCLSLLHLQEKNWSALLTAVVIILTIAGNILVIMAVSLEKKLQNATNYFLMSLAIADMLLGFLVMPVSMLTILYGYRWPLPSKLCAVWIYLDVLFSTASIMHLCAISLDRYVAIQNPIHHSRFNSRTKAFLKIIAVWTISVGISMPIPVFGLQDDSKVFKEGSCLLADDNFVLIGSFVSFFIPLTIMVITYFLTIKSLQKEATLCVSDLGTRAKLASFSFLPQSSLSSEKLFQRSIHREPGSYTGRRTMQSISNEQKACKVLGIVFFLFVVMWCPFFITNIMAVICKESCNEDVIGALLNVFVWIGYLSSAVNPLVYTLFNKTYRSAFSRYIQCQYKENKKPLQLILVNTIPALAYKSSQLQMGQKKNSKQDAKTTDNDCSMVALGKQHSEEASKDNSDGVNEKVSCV
Summary of the method: as §4

[10] = target: T4, histaminergic H1 receptor; test: Cellular functional assay, histaminergic H1 receptor (agonism/antagonism); format: cell-based; conditions: for activation at 1 µM: agonist effect, percent of control specific agonist response, compounds tested at 1×10^−6M, read-out: H1 -ag [%]; for inhibition at 1 µM: read-out: H1 -antag. [%]
Description: as §1, §2

SMILES	activation at 1 µM [1]	inhibition at 1 µM [1]	activation at 1 µM [2]	inhibition at 1 µM [2]	inhibition at 1 µM [3]	inhibition at 1 µM [4]	inhibition at 1 µM [5]	activation at 1 µM [6]	inhibition at 1 µM [6]	inhibition at 1 µM [7]	activation at 1 µM [7]	inhibition at 1 µM [8]	activation at 1 µM [9]	inhibition at 1 µM [9]	activation at 1 µM [10]	inhibition at 1 µM [10]
O=S(=O)(NCCCCN1CCN(c2nsc3ccccc23)CC1)c1cccc2ccccc12 [Compound 1, N-(4-(4-(1,2-Benzothiazol-3-yl)piperazin-1-yl)butyl)naphthalene-1-sulphonamide]	-1%	95%	1%	39%	80%	13%	96%	0%	100%	49%	-17%	91%	0%	99%	0%	51%
Cc1c(S(=O)(=O)NCCCCN2CCN(c3noc4ccccc34)CC2)sc2ccc(F)cc12 [Compound 81, N-[4-[4-(1,2-Benzoxazol-3-yl)piperazin-1-yl]butyl]-5-fluoro-3-methylbenzothiophene-2-sulphonamide]	4%	73%	1%	88%	50%	6%	99%	1%	100%	76%	-10%	93%	-1%	95%	1%	38%
O=S(=O)(NCCCCN1CCN(c2nsc3ccccc23)CC1)c1cc2ccc(Cl)cc2s1 [Compound 241, N-[4-[4-(1,2-Benzothiazol-3-yl)piperazin-1-yl]butyl]-6-chlorobenzothiophene-2-sulphonamide]	6%	82%	0%	69%	96%	4%	99%	0%	95%	78%	7%	97%	-2%	99%	1%	47%
